# In patent publication US11713307B2, “Heteroaryl-biphenyl amides for the treatment of PD-L1 diseases” (CHEMOCENTRYX, INC., priority 2019, dated 2023):
# Target: human PD-L1 (Homo sapiens (Human), UniProt Q9NZQ7)
# Test: Enzyme-Linked Immunosorbent Assay—ELISA (PD-1/PD-L1 binding)
# Conditions: plates coated with human PD-L1; Human PD-1 and biotin added; absorbance at 450 nm
# Method: 96 Well plates were coated with 1 μg/mL of human PD-L1 (obtained from R&D) in PBS overnight at 4° C. The wells were then blocked with 2% BSA in PBS (W/V) with 0.05% TWEEN-20 for 1 hour at 37° C. The plates were washed 3 times with PBS/0.05% TWEEN-20 and the compounds were serial diluted (1:5) in dilution medium and added to the ELISA plates. Human PD-1 and biotin 0.3 μg/mL (ACRO Biosystems) were added and incubated for 1 hour at 37° C. then washed 3 times with PBS/0.05% TWEEN-20. A second block was performed with 2% BSA in PBS (W/V)/0.05% TWEEN-20 for 10 min at 37° C. and the plates were washed 3 times with PBS/0.05% TWEEN-20. Streptavidin-HRP was added for 1 hour at 37° C. then the plates were washed 3 times with PBS/0.05% TWEEN-20. TMB substrate was added and reacted for 20 min at 37° C. A stop solution (2 N aqueous H2SO4) was added. The absorbance was read at 450 nm using a micro-plate spectrophotometer. The results are shown in Table 1: IC50 values are provided as follows: from 1000 to 10,000 nM (+); from 10 up to 1000 nM (++); less than 10 nM (+++).
# Sequence of human PD-L1 (Q9NZQ7 19-239): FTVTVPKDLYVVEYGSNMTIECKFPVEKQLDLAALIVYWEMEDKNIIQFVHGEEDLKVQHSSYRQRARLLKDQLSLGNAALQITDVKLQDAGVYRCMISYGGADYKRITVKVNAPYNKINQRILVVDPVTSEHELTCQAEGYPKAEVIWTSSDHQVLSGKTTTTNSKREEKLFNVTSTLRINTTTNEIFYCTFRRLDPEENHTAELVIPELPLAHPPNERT
row,IC50,SMILES
1,< 10 nM,COc1nc(-c2cccc(-c3cccc(NC(=O)c4cn(C)c(=O)n(C)c4=O)c3Cl)c2Cl)cnc1CN[C@@H]1CCC(=O)NC1 [Compound 1.001]
2,< 10 nM,COc1nc(-c2cccc(-c3cccc(NC(=O)c4cn(C)c(=O)n(C)c4=O)c3Cl)c2Cl)cnc1CN[C@@H]1CNC(=O)C1 [Compound 1.002]
3,< 10 nM,COc1nc(-c2cccc(-c3cccc(NC(=O)c4cn(C)c(=O)n(C)c4=O)c3Cl)c2Cl)cnc1CNC[C@@H]1CCC(=O)N1 [Compound 1.003]
4,< 10 nM,COc1nc(-c2cccc(-c3cccc(NC(=O)c4cn(C)c(=O)n(C)c4=O)c3Cl)c2Cl)cnc1CN[C@H]1CCOC[C@H]1O [Compound 1.004]
5,< 10 nM,COc1nc(-c2cccc(-c3cccc(NC(=O)c4cn(C)c(=O)n(C)c4=O)c3Cl)c2Cl)cnc1CN[C@@H]1CCOC[C@@H]1O [Compound 1.005]
6,< 10 nM,COc1nc(-c2cccc(-c3cccc(NC(=O)c4cn(C)c(=O)n(C)c4=O)c3C)c2Cl)ccc1CNC[C@@H]1CCC(=O)N1 [Compound 1.006]
7,< 10 nM,COc1nc(-c2cccc(-c3cccc(NC(=O)c4cn(C)c(=O)n(C)c4=O)c3C)c2Cl)ccc1CN[C@@H]1CNC(=O)C1 [Compound 1.007]
8,< 10 nM,COc1nc(-c2cccc(-c3cccc(NC(=O)c4cn(C)c(=O)n(C)c4=O)c3C)c2Cl)ccc1CN[C@@H]1CCOC[C@@H]1O [Compound 1.008]
9,< 10 nM,COc1cc(-c2cccc(-c3cccc(NC(=O)c4cn(C)c(=O)n(C)c4=O)c3C)c2Cl)cnc1CN[C@@H]1CCOC[C@@H]1O [Compound 1.009]
10,< 10 nM,COc1cc(-c2cccc(-c3cccc(NC(=O)c4cn(C)c(=O)n(C)c4=O)c3C)c2C)cnc1CNCCO [Compound 1.010]
11,< 10 nM,COc1nc(-c2cccc(-c3cccc(NC(=O)c4cn(C)c(=O)n(C)c4=O)c3C)c2Cl)ccc1CN[C@@H]1CCC[C@@H]1O [Compound 1.011]
12,< 10 nM,COc1nc(-c2cccc(-c3cccc(NC(=O)c4cn(C)c(=O)n(C)c4=O)c3C)c2Cl)ccc1CN[C@@H]1COC[C@@H]1O [Compound 1.012]
13,< 10 nM,COc1nc(-c2cccc(-c3cccc(NC(=O)c4cn(C)c(=O)n(C)c4=O)c3C)c2Cl)ccc1CN[C@H]1CCOC[C@@H]1O [Compound 1.013]
14,< 10 nM,COc1nc(-c2cccc(-c3cccc(NC(=O)c4cn(C)c(=O)n(C)c4=O)c3C)c2Cl)ccc1CN[C@@H]1CCOC[C@H]1O [Compound 1.014]
15,< 10 nM,COc1nc(-c2cccc(-c3cccc(NC(=O)c4cn(C)c(=O)n(C)c4=O)c3C)c2Cl)ccc1CNCC1(C)CCC(=O)N1 (stereo not shown) [Compound 1.015]
16,< 10 nM,COc1nc(-c2cccc(-c3cccc(NC(=O)c4cn(C)c(=O)n(C)c4=O)c3C)c2Cl)ccc1CNC[C@@H]1CC(C)(C)C(=O)N1 [Compound 1.016]
17,< 10 nM,COc1nc(-c2cccc(-c3cccc(NC(=O)c4cn(C)c(=O)n(C)c4=O)c3C)c2Cl)ccc1CN[C@@H]1CCCC[C@@H]1O [Compound 1.017]
18,< 10 nM,COc1nc(-c2cccc(-c3cccc(NC(=O)c4cn(C)c(=O)n(C)c4=O)c3Cl)c2F)ccc1CN[C@@H]1CCOC[C@@H]1O [Compound 1.018]
19,< 10 nM,COc1nc(-c2cccc(-c3cccc(NC(=O)c4cn(C)c(=O)n(C)c4=O)c3C)c2Cl)ccc1CN1CC[C@](C)(O)C1 [Compound 1.019]
20,< 10 nM,COc1nc(-c2cccc(-c3cccc(NC(=O)c4cn(C)c(=O)n(C)c4=O)c3C)c2Cl)ccc1CN[C@H](C)CO [Compound 1.020]
21,< 10 nM,COc1nc(-c2cccc(-c3cccc(NC(=O)c4cn(C)c(=O)n(C)c4=O)c3C)c2Cl)ccc1CN[C@@H](C)CO [Compound 1.021]
22,1000 to 10000 nM,COc1nc(-c2cccc(-c3cccc(NC(=O)c4cn(C)c(=O)n(C)c4=O)c3C)c2Cl)ccc1CNCC1(O)CC1 [Compound 1.022]
23,< 10 nM,COc1nc(-c2cccc(-c3cccc(NC(=O)c4cn(C)c(=O)n(C)c4=O)c3C)c2Cl)ccc1CNCCC(C)(C)O [Compound 1.023]
24,< 10 nM,COc1nc(-c2cccc(-c3cccc(NC(=O)c4cn(C)c(=O)n(C)c4=O)c3C)c2F)ccc1CN[C@@H]1CCOC[C@@H]1O [Compound 1.024]
25,< 10 nM,COc1nc(-c2cccc(-c3cccc(NC(=O)c4cn(C)c(=O)n(C)c4=O)c3C)c2Cl)ccc1CN1CC2(CNC(=O)N2)C1 [Compound 1.025]
26,< 10 nM,COc1nc(-c2cccc(-c3cccc(NC(=O)c4cn(C)c(=O)n(C)c4=O)c3C)c2C#N)ccc1CN[C@@H]1CCOC[C@@H]1O [Compound 1.026]
27,< 10 nM,COc1nc(-c2cccc(-c3cccc(NC(=O)c4cn(C)c(=O)n(C)c4=O)c3Cl)c2Cl)ccc1CN1CC[C@@](C)(O)C1 [Compound 1.027]
28,< 10 nM,COc1nc(-c2cccc(-c3cccc(NC(=O)c4cn(C)c(=O)n(C)c4=O)c3C)c2Cl)ccc1CNC[C@@H](C)O [Compound 1.028]

row,IC50,SMILES
1,< 10 nM,COc1nc(-c2cccc(-c3cccc(NC(=O)c4cn(C)c(=O)n(C)c4=O)c3C)c2Cl)ccc1CNC[C@H](C)O [Compound 1.029]
2,< 10 nM,COc1nc(-c2cccc(-c3cccc(NC(=O)c4cn(C)c(=O)n(C)c4=O)c3Cl)c2Cl)ccc1CNC[C@@H](O)CO [Compound 1.030]
3,< 10 nM,CNCc1ccc(-c2cccc(-c3cccc(NC(=O)c4cn(C)c(=O)n(C)c4=O)c3C)c2Cl)nc1OC [Compound 1.031]
4,< 10 nM,COc1nc(-c2cccc(-c3cccc(NC(=O)c4cn(C)c(=O)n(C)c4=O)c3Cl)c2Cl)ccc1CNC[C@@H](C)O [Compound 1.032]
5,10 to 1000 nM,Cn1cc(C(=O)Nc2cccc(-c3cccc(-c4ccc(CNC[C@@H]5CCC(=O)N5)c(O)n4)c3Cl)c2Cl)c(=O)n(C)c1=O [Compound 1.033]
6,< 10 nM,COc1nc(-c2cccc(-c3cccc(NC(=O)c4cn(C)c(=O)n(C)c4=O)c3Cl)c2Cl)ccc1CNC[C@H](C)O [Compound 1.034]
7,< 10 nM,COc1nc(-c2cccc(-c3cccc(NC(=O)c4cn(C)c(=O)n(C)c4=O)c3Cl)c2Cl)ccc1CNCC1(O)CC1 [Compound 1.035]
8,< 10 nM,COc1nc(-c2cccc(-c3cccc(NC(=O)c4cn(C)c(=O)n(C)c4=O)c3Cl)c2Cl)ccc1CNCCCO [Compound 1.036]
9,< 10 nM,COc1nc(-c2cccc(-c3cccc(NC(=O)c4cn(C)c(=O)n(C)c4=O)c3C)c2Cl)ccc1CNC(C)C [Compound 1.037]
10,< 10 nM,COc1nc(-c2cccc(-c3cccc(NC(=O)c4cn(C)c(=O)n(C)c4=O)c3C)c2Cl)ccc1CN1CC(C)(O)C1 [Compound 1.038]
11,< 10 nM,COc1nc(-c2cccc(-c3cccc(NC(=O)c4cn(C)c(=O)n(C)c4=O)c3Cl)c2Cl)ccc1CNCCO [Compound 1.039]
12,< 10 nM,COc1nc(-c2cccc(-c3cccc(NC(=O)c4cn(C)c(=O)n(C)c4=O)c3C)c2Cl)ccc1CNCC(C)(C)C(N)=O [Compound 1.040]
13,< 10 nM,COc1nc(-c2cccc(-c3cccc(NC(=O)c4cn(C)c(=O)n(C)c4=O)c3C)c2Cl)ccc1CN1CC(C(C)(C)O)C1 [Compound 1.041]
14,< 10 nM,COc1nc(-c2cccc(-c3cccc(NC(=O)c4cn(C)c(=O)n(C)c4=O)c3C)c2Cl)ccc1CN[C@H]1CCOC[C@H]1O [Compound 1.042]
15,< 10 nM,COc1nc(-c2cccc(-c3cccc(NC(=O)c4cn(C)c(=O)n(C)c4=O)c3C)c2Cl)ccc1CNC[C@@H]1CCC(=O)N1C [Compound 1.043]
16,< 10 nM,COc1nc(-c2cccc(-c3cccc(NC(=O)c4cn(C)c(=O)n(C)c4=O)c3C)c2Cl)ccc1CNC[C@@H](O)CO [Compound 1.044]
17,< 10 nM,Cc1c(NC(=O)c2cn(C)c(=O)n(C)c2=O)cccc1-c1cccc(-c2ccc(CNC[C@@H]3CCC(=O)N3)c(C(F)(F)F)n2)c1Cl [Compound 1.045]
18,< 10 nM,COc1nc(-c2cccc(-c3cccc(NC(=O)c4cn(C)c(=O)n(C)c4=O)c3C)c2Cl)ccc1CN1CCC(O)CC1 [Compound 1.046]
19,< 10 nM,CCOc1nc(-c2cccc(-c3cccc(NC(=O)c4cn(C)c(=O)n(C)c4=O)c3C)c2Cl)ccc1CNC[C@@H]1CCC(=O)N1 [Compound 1.047]
20,< 10 nM,COc1nc(-c2cccc(-c3cccc(NC(=O)c4cn(C)c(=O)n(C)c4=O)c3C)c2Cl)ccc1CN1CC[C@@](C)(O)C1 [Compound 1.048]
21,< 10 nM,COc1nc(-c2cccc(-c3cccc(NC(=O)c4cn(C)c(=O)n(C)c4=O)c3C)c2Cl)ccc1CNCC(C)(C)CO [Compound 1.049]
22,< 10 nM,COc1nc(-c2cccc(-c3cccc(NC(=O)c4cn(C)c(=O)n(C)c4=O)c3C)c2Cl)ccc1CNC(C)(C)CCO [Compound 1.050]
23,< 10 nM,COc1nc(-c2cccc(-c3cccc(NC(=O)c4cn(C)c(=O)n(C)c4=O)c3C)c2Cl)ccc1CNCC(=O)O [Compound 1.051]
24,< 10 nM,COc1nc(-c2cccc(-c3cccc(NC(=O)c4cn(C)c(=O)n(C)c4=O)c3C)c2Cl)ccc1CN(C)CCO [Compound 1.052]
25,< 10 nM,COc1nc(-c2cccc(-c3cccc(NC(=O)c4cn(C)c(=O)n(C)c4=O)c3C)c2Cl)ccc1CN1CC(C)(C(=O)O)C1 [Compound 1.053]
26,< 10 nM,CCc1nc(-c2cccc(-c3cccc(NC(=O)c4cn(C)c(=O)n(C)c4=O)c3C)c2Cl)ccc1CNC[C@@H]1CCC(=O)N1 [Compound 1.054]
27,< 10 nM,COc1nc(-c2cccc(-c3cccc(NC(=O)c4cn(C)c(=O)n(C)c4=O)c3C)c2Cl)ccc1CNCC(C)(C)O [Compound 1.055]
